Assay results: patent US11447534B2, “Peptide complex with immunodulatory and anti-inflammatory function” (NATIONAL INSTITUTE OF IMMUNOLOGY, priority 2018, dated 2022)

How the values were obtained:
[1] = system: carrageenan challenged mice; experiment: Carrageenan induced nitrite production in serum (Griess reaction); type: in vivo, mouse; conditions: 50 microgram of A-O complex, 3rd hour post carrageenan challenge
Protocol: Measurement of nitric oxide in serum: Nitric oxide concentration in serum of carrageenan challenged mice with or without treatment was determined by the Griess reaction as an indicator of nitric oxide production as previously reported by Prado (2002) [Prado W A, Schiavon V F, Cunha F Q. Dual effect of local application of nitric oxide donors in a model of incision pain in rats. Eur J Pharmacol. 2002; 441:57-65]. Briefly, 100 microlitre of sera and 100 microlitre of Griess reagent (mix of 2% sulphanilamide in 5% phosphoric acid and 0.2% N(1-naphthyl) ethylenediamine hydrochloride) were mixed in 96-well ELISA plate and Absorbance was read at 550 nm. The concentration of nitrite was determined using a standard curve of sodium nitrite.

RAW264.7 macrophages = experiment: qPCR of Cd74, Cd36 in serum starved macrophages; type: cell-based, murine; conditions: unstimulated RAW264.7 macrophages, with respect to basal
[2] = system: co-culture of osteoblast (MC3T3-E1) and osteoclast (from RAW264.7); experiment: Osteoblast-osteoclast co-culture, mRNA by Real Time PCR; type: cell-based, mouse; conditions: 24 hours of incubation, vs basal
Protocol: Effect of A-O complex on bone cells: To determine whether A-O complex modulated bone cells, A-O complex was added to a co-culture system of osteoblast and osteoclast. MC3T3-E1 sub-clone 4 (pre-osteoblast cell line derived from new born mouse calvaria purchased from American Type Culture Collection) were cultured in α-MEM (Invitrogen, USA) supplemented with 10% fetal bovine serum and 1% anti-anti (Invitrogen, USA). Osteoblasts within the 4th and 10th passages were used for this study. For cell culture experiments 2×10^6 cells were seeded in 60 mm Petri plates. To initiate differentiation, cells were treated with 10 mM β-glycerophosphate and 50 μg/ml ascorbic acid. Murine RAW264.7 (macrophage) cells were used for generating osteoclasts. The cells were maintained in RPMI 1640 media supplemented with glutamine (2 mM) and FBS (10%). No trypsination was performed and subculture was done using a cell scraper after cultures reached 65-70% confluency. For generation of osteoclasts from RAW264.7 cells, cells of density 12000 cells per cm^2 were stimulated with 25 ng per ml of RANKL (directly with seeding) for 72-96 hours after which large multinucleated cells are seen and confirmed using TRAP5b assay. […] Thereafter the co-culture was exposed to A-O complex and the mRNA levels of osteocalcin and IGF-1 were analyzed by Real Time PCR.

EOC20 microglial cells = experiment: F-actin confocal microscopy of unstimulated EOC20 microglia; type: cell-based; conditions: serum starved, 1 hour
Protocol: To determine the morphological changes in microglia upon exposure to A-O complex, F-actin confocal microscopy was performed. For that poly-L-lysine coated coverslips were placed in the 24 well culture dishes containing 1 ml of complete media and cells were seeded over the cover slips. […] Post treatment, the cell culture media was then removed and cells were washed thrice with 1×PBS (pH 7.4). Cells were fixed in 4% PFA for 10 min at room temperature and then washed thrice with 1×PBS (pH 7.4). Cells were then exposed to Phalloidin-actin (F-actin) antibody for 20 min in the dark. Thereafter, cells were washed twice with 1×PBS (pH7.4) and mounted using DAPI Fluormount (Invitrogen, Carlsbad, Calif., USA). Cells were imaged on a Zeiss LSM510 META laser-scanning confocal microscope. A PlanApochromat 63/1.4 oil-immersion DIC M27 objective (Zeiss) was used for image acquisition. [Concentration of Phalloidin-actin antibody: 300 U of Phalloidin-actin (Invitrogen, Carlsbad, USA) was dissolved in 1.5 ml methanol to yield a concentration of 200 U/ml or 6.6 μM. 1 U of phalloidin is equal to 5 μl of methanolic stock].

[3] = system: ConA activated macrophages; experiment: qPCR in ConA activated macrophages; type: cell-based, murine
Protocol: To determine the immunomodulatory effect of A-O complex, serum starved macrophages were exposed to the complex. Macrophages (1×10^6 cells) were serum starved for 30 min after which cells were exposed to A-O complex. After 1 hour, cells were washed with 1×PBS (pH 7.4) and harvested using cell dissociation solution. Then the cells were suspended in ice cold staining buffer (100 μl) and centrifuged at 1000 rpm for 5 min at 4° C. The cells were resuspended in 100 μl ice cold staining buffer for 10 min at 2-8° C. and pellet resuspended in 50 μl staining media. To this 2 μl of Fc block or anti-mouse CD16/CD32 was added for 10 mins and washed with staining buffer. The cells were resuspended in 50 μl of staining buffer and incubated with fluorescent-tagged CD36 antibody (e-biosciences) for 25-30 min on ice. The excess stain was removed by washing and pelleting down using staining buffer thrice by spinning and removal of staining buffer. The cell suspension was fixed 1:1 ratio (staining buffer:fixative) and analysed within 48 h in ARIA3 DIVA software version 6.1. Further, expression of MHC-II, and CD-36, was also determined in the microglial cells via qPCR. For this RNA extraction was performed using RNA extraction kit from Qiagen according to the manufacturer's instruction. cDNA synthesis was performed using cDNA synthesis kit from Qiagen. […] Following amplification, fold changes in gene expression versus β-actin (reference) analysis was determined using the 2^ΔΔCT(Livak) method. To determine the immunomodulatory effect of A-O complex on activated macrophages, macrophages were activated with Concanavalin-A (Con-A), for 30 minutes and the changes in mRNA levels of Cd36, Lrp1, Cd11b, Cd74 and Apoe were analyzed by qPCR.

Abeta42 = molecular target: T1, Abeta42 (Homo sapiens, UniProt P05067); experiment: Abeta42 fibrillization in situ (TEM, Thioflavin T binding assay); type: biochemical; conditions: Abeta42 100 μM + Glu-OC 3 ng vs Abeta42 control, 8th hour
T1 construct: of Abeta 1-42 peptide; Molecular weight = 4514.1; purchased r-peptide
Protocol: For this study, different concentrations of Glu-OC viz. […] After keeping the samples for 5 minutes, the excess was washed off with ultrapure water and surplus sample and water were wicked away using absorbent paper. The samples were negatively stained using 1% uranyl acetate stain, dried and analyzed in a transmission electron microscope CM10 Philips operated at 80 kV. […] ThT assay measures the changes in fluorescence intensity of ThT upon binding to amyloid fibrils. […] The resulting ThT fluorescence intensities of samples were measured at an emission wavelength of 480 nm and excitation wavelength of 440 nm and 5 nm slit width using a Jobin Vyon Horiba Fluoromax-4 spectrofluorimeter. The inner filter effect was taken into account using the Equation: Fc=F×anti log[(Aex+Aem)/2] where Fc is the corrected flourescence and F is apparent fluorescence, Aex and Aem are the absorbances of the samples at excitation and emission wavelengths respectively.

T1 sequence (P05067 672-713): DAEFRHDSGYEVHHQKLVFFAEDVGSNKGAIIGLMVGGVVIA

A-O complex: peptide complex of 100 μM Abeta1-42 (SEQ ID NO: 1) and 3 ng Glu-OC (SEQ ID NO: 2), incubated at 37° C. for 4 hours
serum nitrite level [1]: maximal efficiency to reduce serum nitrite level
increase in mRNA level of Cd36 (RAW264.7 macrophages): 8 fold
increase in mRNA level of Cd74 (MHC-II) (RAW264.7 macrophages): 3 fold
mRNA transcripts of IGF-1 [2]: significantly higher
mRNA transcripts of osteocalcin [2]: significantly higher
microglia morphology (F-actin) (EOC20 microglial cells): rounded morphology with projections indicative of activation
mRNA level of Cd11b [3]: significantly reversed
mRNA level of Cd36 [3]: significantly induced
mRNA level of Cd74 [3]: significantly reversed
ThT fluorescence emission (Abeta42): high enhancement of fluorescence emission of ThT
